Measured values published in paper PMC4861708 (Frontiers in Cell and Developmental Biology, 2016).
≈ marks a conversion by molar mass, not a printed value. Where a SMILES comes first, the peptide text is derived from it. [ ]: non-standard residue; d: D form. The star is where a group is joined. Orn(α-tetramethylguanidino) = CN(C)C(=N[C@@H](CCCN)C(=O)*)N(C)C; Orn = NCCC[C@H](N)C(=O)O

How the values were obtained:
HEK293 cells = tested on: HEK293 cells; set-up: method as in Berthold et al., 2013; Bluhm et al., 2015; conditions: ref Berthold et al., 2013, Bluhm et al., 2015; cited from earlier work
[1] = set-up: method as in unpublished data; conditions: four intraperitoneal injections of 80 mg/kg per day; ref unpublished data; cited from earlier work
[2] = tested on: Primary rat cardiomyocytes; set-up: method as in Berthold et al., 2013; Bluhm et al., 2015; conditions: ref Berthold et al., 2013, Bluhm et al., 2015; cited from earlier work
[3] = tested on: Escherichia coli ATCC25922; set-up: method as in unpublished data; conditions: mouse infection models with E. coli ATCC25922, doses of only 0.6 mg/kg; ref unpublished data; cited from earlier work
[4] = tested on: P. aeruginosa DSM 3227 (ATCC 19429); assay type: cell-based, Pseudomonas aeruginosa; conditions: DSM 3227, 24 h
Experimental: (§1) MICs of P. aeruginosa strains DSM 1117 (ATCC 27853), DSM 3227 (ATCC 19429), and DSM 9644 were determined in a microdilution broth assay using 50 or 100% MHB (11.5 and 23 g/L MHB, respectively) whereas MICs of E. coli DSM 1103 (ATCC 25922) and K. pneumoniae DSM 681 (ATCC 10031) were determined in TSB (30 g/L TSB). Peptides (1 g/L in water) were serially two-fold diluted in a 96-well microtiter plate (PS, sterile, flat bottom) in 50 μL of the corresponding medium to final concentrations of 512–4 μg/mL. Bacteria were grown in nutrient broth overnight and diluted to a cell concentration of 1.5 × 10^7 cells/mL in the corresponding medium. Cell densities were determined by using the McFarland standard as reference. An aliquot (50 μL) of the cell culture was added to each well and incubated (37°C, 24 h). The OD595 was determined in a SpectraMax 340PC (Molecular Devices, Sunnyvale, USA). Additionally, MIC values were also determined for high bacteria densities (5 × 10^8 cells/mL) corresponding to the conditions used for TEM, as described above.

P. aeruginosa DSM 9644 = assay type: cell-based, Pseudomonas aeruginosa; conditions: DSM 9644, 24 h
Experimental: as §1

in vitro = assay type: cell-based; conditions: human
Experimental: Human embryonic kidney (HEK293) and HeLa cells were cultured in Dulbecco's modified Eagle's/Ham's F-12 medium [DMEM/F-12 (1:1)] supplemented with FBS (10% v/v), penicillin, and streptomycin (1000 units each). Primary rat cardiomyocytes (Innoprot, Elexalde Derio, Spain) were grown in medium supplemented with FBS (20% v/v), horse serum (5% v/v), L-glutamine (2 mmol/L), sodium pyruvate (2 mmol/L), MEM non-essential amino acids (Gibco, 0.1 mmol/L), penicillin, and streptomycin (1000 units each). Surfaces for cardiomyocyte growth were coated with attachment factor first. Cells (20,000/well) were seeded into a 96-well plate (PS, sterile, flat bottom), incubated for 24 h (37°C, 5% CO2), and washed twice with PBS (100 μl/well) prior to adding colorless medium (88 μL) and peptide solution (12 μL; 5, 2.5, 1.25, […], and 0.625 g/L in PBS). Positive controls were triton X-100 (1%, v/v) and melittin (60 mg/L) as lytic peptide, whereas PBS (12%, v/v) served as negative control. After an incubation period of 24 h, supernatant (25 μL) was mixed with lactate dehydrogenase (LDH) substrate (175 μL; 0.57 mmol/L sodium pyruvate, 0.24 mmol/L NADH disodium salt, 32 mmol/L potassium dihydrogen phosphate, 66 mmol/L dipotassium phosphate) in 96-well plates (PS, sterile, flat bottom). Absorbance was recorded at 340 nm every 3 min for 30 min on the Paradigm microplate reader. Due to the total release of LDH upon triton X-100 treatment, the control contained high LDH concentrations resulting in a fast substrate turnover that was only linear for the first 6 min.
The MTT cell viability assay relied on the same cell culture. Remaining medium was replaced by a mixture of fresh colorless medium (100 μL) and MTT (10 μL; 5 g/L in PBS) and incubated for 4 h (37°C, 5% CO2). A solution of sodium dodecyl sulfate (100 μL; 10%, w/v) dissolved in hydrochloric acid (10 mmol/L) was added, incubated (16 h), and the absorbance recorded at 590 nm relative to the reference at 650 nm (Paradigm microplate reader). The relative cell viability was calculated by [(ODPeptide − ODTriton)/(ODPBS − ODTriton)] × 100% and half-maximal inhibitory concentrations (IC50) with an Excel-template from cell biology protocols (www.sciencegateway.org/ protocols/cellbio/drug/hcic50.htm). For statistical analysis an unpaired t-test was applied using GraphPad Prism 5.0.

SMILES: CC[C@H](C)[C@H](NC(=O)[C@H](Cc1ccc(O)cc1)NC(=O)[C@@H](NC(=O)[C@@H]1CCCN1C(=O)[C@H](CCCNC(=N)N)NC(=O)[C@H](CC(N)=O)NC(=O)[C@H](CC(N)=O)NC(=O)[C@H](CCCN)N=C(N(C)C)N(C)C)C(C)C)C(=O)N1CCC[C@H]1C(=O)N[C@@H](CCCNC(=N)N)C(=O)N1CCC[C@H]1C(=O)N[C@@H](CCCNC(=N)N)C(=O)N1CCC[C@H]1C(=O)N1CCC[C@H]1C(=O)N[C@@H](Cc1c[nH]cn1)C(=O)N1CCC[C@H]1C(=O)N[C@@H](CCCNC(=N)N)C(=O)N[C@@H](CC(C)C)C(=O)O [Api137, gu-ONNRPVYIPRPRPPHPRL-OH, reference compound] ({Orn(α-tetramethylguanidino)}-NNRPVYIPRPRPPHPRL-OH)
- IC50 on cell viability (HEK293 cells): >600 mg/L
- in vivo tolerance, acute toxic effects [1]: no acute toxic effects
- IC50 on cell viability [2]: >600 mg/L
- survival rate [3]: 100%
- MIC P. aeruginosa DSM 3227 [4]: >256 mg/L

SMILES: CC(C)C[C@H](NC(=O)[C@H](CCCNC(=N)N)NC(=O)[C@@H]1CCCN1C(=O)[C@H](Cc1c[nH]cn1)NC(=O)[C@@H]1CCCN1C(=O)[C@@H]1CCCN1C(=O)[C@H](CCCNC(=N)N)NC(=O)[C@@H]1CCCN1C(=O)[C@H](CCCNC(=N)N)NC(=O)[C@@H]1CCCN1C(=O)[C@H](CCCN)NC(=O)[C@H](Cc1ccc(O)cc1)NC(=O)[C@@H](NC(=O)[C@@H]1CCCN1C(=O)[C@H](CCCNC(=N)N)NC(=O)[C@H](CCCN)NC(=O)[C@H](Cc1c[nH]c2ccccc12)NC(=O)[C@H](CCCN)NC(=O)[C@H](Cc1c[nH]c2ccccc12)NC(=O)[C@H](CCCN)NC(=O)[C@H](Cc1c[nH]c2ccccc12)NC(=O)[C@H](CCCN)N=C(N(C)C)N(C)C)C(C)C)C(=O)O [Api794, gu-O(WO)3RPVYOPRPRPPHPRL-OH] ({Orn(α-tetramethylguanidino)}-W[Orn]W[Orn]W[Orn]RPVY[Orn]PRPRPPHPRL-OH)
- MIC P. aeruginosa DSM 9644 (P. aeruginosa DSM 9644): 16 mg/L (≈ 5.4 µM)

SMILES: CC[C@H](C)[C@H](NC(=O)[C@H](CCCN)N=C(N(C)C)N(C)C)C(=O)N[C@@H](CCCN)C(=O)N[C@H](C(=O)N[C@@H](CCCN)C(=O)N[C@@H](CCCNC(=N)N)C(=O)N1CCC[C@H]1C(=O)N[C@H](C(=O)N[C@@H](Cc1ccc(O)cc1)C(=O)N[C@@H](CCCN)C(=O)N1CCC[C@H]1C(=O)N[C@@H](CCCNC(=N)N)C(=O)N1CCC[C@H]1C(=O)N[C@@H](CCCNC(=N)N)C(=O)N1CCC[C@H]1C(=O)N1CCC[C@H]1C(=O)N[C@@H](Cc1c[nH]cn1)C(=O)N1CCC[C@H]1C(=O)N[C@@H](CCCNC(=N)N)C(=O)N[C@@H](CC(C)C)C(=O)O)C(C)C)[C@@H](C)CC [Api795, gu-O(IO)2RPVYOPRPRPPHPRL-OH] ({Orn(α-tetramethylguanidino)}-I[Orn]I[Orn]RPVY[Orn]PRPRPPHPRL-OH)
- viability at 24 h, 0.6 g/L (in vitro): 78 ± 14%
